Results reported in article PMC5484537 (Bioorganic & medicinal chemistry, 2016).

Columns and labels:
[1] = tested on: panel of 468 kinases and mutants; experiment: KINOMEscan in vitro ATP-site competition binding assay, kinome selectivity; design: species or system human; conditions: KINOMEscan at 1 μM; for selectivity score S(1): 468 kinases and mutants, kinases with scores less than 1
[2] = target: T1, TAK1 (Homo sapiens, UniProt O43318); experiment: KINOMEscan binding to TAK1; conditions: for binding to TAK1 in KINOMEscan: concentration of 1 μM
T1 sequence (O43318 1-606): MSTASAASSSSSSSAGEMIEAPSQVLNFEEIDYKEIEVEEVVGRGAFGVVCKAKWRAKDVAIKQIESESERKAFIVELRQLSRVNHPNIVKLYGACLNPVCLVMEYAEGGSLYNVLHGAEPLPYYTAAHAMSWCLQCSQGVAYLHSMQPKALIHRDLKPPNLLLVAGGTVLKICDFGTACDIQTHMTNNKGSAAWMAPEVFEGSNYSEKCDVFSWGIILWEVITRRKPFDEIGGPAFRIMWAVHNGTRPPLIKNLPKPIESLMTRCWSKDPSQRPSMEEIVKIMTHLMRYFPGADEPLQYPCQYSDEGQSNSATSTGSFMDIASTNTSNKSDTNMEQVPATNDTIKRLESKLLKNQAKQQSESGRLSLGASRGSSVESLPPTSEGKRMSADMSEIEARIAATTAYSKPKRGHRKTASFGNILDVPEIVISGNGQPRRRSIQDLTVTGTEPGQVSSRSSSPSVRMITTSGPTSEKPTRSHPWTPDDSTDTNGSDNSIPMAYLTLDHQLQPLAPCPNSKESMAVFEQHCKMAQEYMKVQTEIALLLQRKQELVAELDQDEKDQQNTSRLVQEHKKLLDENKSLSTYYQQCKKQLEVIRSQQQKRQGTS

[3] = target: T2, TAK1 (Homo sapiens, UniProt O43318); experiment: Time-dependent experiments, Kinact/Ki determination; type: binding
T2 sequence (O43318 1-303 limits assumed): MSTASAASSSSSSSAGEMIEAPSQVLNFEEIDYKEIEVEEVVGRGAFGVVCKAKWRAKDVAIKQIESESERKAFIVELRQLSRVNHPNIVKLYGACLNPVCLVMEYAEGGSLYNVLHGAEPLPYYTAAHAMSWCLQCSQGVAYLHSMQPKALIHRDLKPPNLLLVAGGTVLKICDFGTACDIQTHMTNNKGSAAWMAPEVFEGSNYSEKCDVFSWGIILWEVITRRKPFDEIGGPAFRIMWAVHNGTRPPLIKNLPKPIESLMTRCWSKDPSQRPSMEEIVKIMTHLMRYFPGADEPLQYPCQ

[4] = target: ERK2 (Homo sapiens, UniProt P28482); experiment: Z'-Lyte activity assay, ERK2; type: biochemical; conditions: compound incubation time of 60 min
Chain of ERK2 (P28482 2-360): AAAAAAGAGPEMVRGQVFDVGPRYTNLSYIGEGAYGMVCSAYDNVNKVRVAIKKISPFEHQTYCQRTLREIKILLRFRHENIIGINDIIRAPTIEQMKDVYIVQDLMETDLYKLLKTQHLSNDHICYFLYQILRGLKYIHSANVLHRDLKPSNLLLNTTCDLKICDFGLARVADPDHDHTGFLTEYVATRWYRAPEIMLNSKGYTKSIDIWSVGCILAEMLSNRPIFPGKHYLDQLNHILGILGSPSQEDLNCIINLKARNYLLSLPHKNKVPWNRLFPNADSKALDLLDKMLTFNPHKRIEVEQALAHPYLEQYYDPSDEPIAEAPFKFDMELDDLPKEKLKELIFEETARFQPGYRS

[5] = target: T3, TAK1 (Homo sapiens, UniProt O43318); experiment: Mass spectrometry analysis of purified TAK1 incubated with compound; type: binding; conditions: Fig S3
T3 sequence (O43318 with tags, fused parts or gaps): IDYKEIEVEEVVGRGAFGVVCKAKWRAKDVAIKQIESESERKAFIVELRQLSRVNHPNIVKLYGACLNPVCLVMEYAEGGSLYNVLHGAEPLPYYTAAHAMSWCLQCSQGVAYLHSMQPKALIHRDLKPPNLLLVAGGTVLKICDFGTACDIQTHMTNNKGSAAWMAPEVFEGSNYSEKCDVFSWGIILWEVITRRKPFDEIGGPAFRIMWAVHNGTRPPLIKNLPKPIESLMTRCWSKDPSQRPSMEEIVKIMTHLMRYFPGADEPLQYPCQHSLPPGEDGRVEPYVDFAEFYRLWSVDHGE

C=CC(=O)Oc1ccccc1Nc1nc(Nc2ccc(N3CCN(C)CC3)cc2)ncc1Cl [compound 7, 2-((5-chloro-2-((4-(4-methylpiperazin-1-yl)phenyl)amino)pyrimidin-4-yl)amino)phenyl acrylate]
selectivity score S(1) [1]: 0.19

C=CC(=O)Nc1ccccc1Oc1nc(Nc2cnn(CCOC)c2)ncc1Cl [compound 25]
binding to TAK1 in KINOMEscan [2]: TAK1 was not ranked among the strongest hits | selectivity score S(5) [1]: 0.03

COc1cc(O)c2c(c1)/C=C/C[C@H](O)[C@H](O)C(=O)/C=C\C[C@H](C)OC2=O [5Z7, 5Z-7-oxozeaenol, reference compound]
inhibition score against TAK1 in KINOMEscan ([2]; 10 μM): moderate inhibition score | binding to TAK1 in KINOMEscan [2]: did not display strong binding

CCC(=O)Nc1ccccc1Nc1nc(Nc2ccc(N3CCN(C)CC3)cc2)ncc1Cl [compound 9]
binding to kinases with a cysteine at the DFG-1 position [1]: hits no kinases with a cysteine at the DFG-1 position | selectivity score S(1) [1]: 0.10

C=CC(=O)Nc1ccccc1Nc1nc(Nc2ccc(N3CCN(C)CC3)cc2)ncc1Cl [compound 5, N-(2-((5-chloro-2-((4-(4-methylpiperazin-1-yl)phenyl)amino)pyrimidin-4-yl)amino)phenyl)acrylamide]
kinact/KI [3]: 6870 M⁻¹ s⁻¹ | Enzymatic IC50s ERK2 [4]: weak activity | binding to kinases with a cysteine at the DFG-1 position [1]: binds to TAK1 and ten other kinases with a cysteine at the DFG-1 position | selectivity score S(1) [1]: 0.10

C=CC(=O)Nc1ccccc1Oc1nc(Nc2ccc(N3CCN(C)CC3)cc2)ncc1Cl [compound 2, N-(2-((5-chloro-2-((4-(4-methylpiperazin-1-yl)phenyl)amino)pyrimidin-4-yl)oxy)phenyl)acrylamide]
labeling of TAK1 residue [5]: exclusive labeling of Cys174

C=CC(=O)Nc1ccccc1Oc1nc(Nc2cnn(C(F)F)c2)ncc1Cl [compound 23]
binding to TAK1 in KINOMEscan [2]: TAK1 was not ranked among the strongest hits | selectivity score S(5) [1]: 0.1
